Experimental data reported in ChEMBL document CHEMBL1201862, “PubChem BioAssay data set” (2004).
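These data come from cells grown in 96-well plates and exposed to compound for 48 hours at five concentrations. At the GI50, growth is halved.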 Activity calls are given as the source filed them. No stated cut-off is given here; in the data, active = GI50 up to about 1.1 µM and inactive = higher.

Key:
Experiment in all cases: growth of human tumour cells (NCI), 48 h
MDA-N = system: MDA-N
T47D = system: T47D
786-0 = system: 786-0
TK-10 = system: TK-10
HCC 2998 = system: HCC 2998
SK-OV-3 = system: SK-OV-3
NCI-H23 = system: NCI-H23
SF-539 = system: SF-539
EKVX = system: EKVX
RXF 393 = system: RXF 393
SF-268 = system: SF-268
SNB-19 = system: SNB-19
CAKI-1 = system: CAKI-1
ACHN = system: ACHN
MDA-MB-435 = system: MDA-MB-435
DU-145 = system: DU-145
OVCAR-3 = system: OVCAR-3
MOLT-4 = system: MOLT-4
HCT-15 = system: HCT-15
Malme-3M = system: Malme-3M
LOX IMVI = system: LOX IMVI
PC-3 = system: PC-3
SW-620 = system: SW-620
HL-60 = system: HL-60
SF-295 = system: SF-295
SK-MEL-5 = system: SK-MEL-5
HOP-62 = system: HOP-62
NCI-H522 = system: NCI-H522
NCI-H226 = system: NCI-H226
MDA-MB-231 = system: MDA-MB-231
SNB-75 = system: SNB-75
A549 = system: A549
U-251 = system: U-251
SN12C = system: SN12C
NCI-H460 = system: NCI-H460
IGROV-1 = system: IGROV-1
M14 = system: M14
K562 = system: K562
COLO 205 = system: COLO 205
BT-549 = system: BT-549
MCF7 = system: MCF7
NCI/ADR-RES = system: NCI/ADR-RES
SR = system: SR
A498 = system: A498
SK-MEL-2 = system: SK-MEL-2
UACC-257 = system: UACC-257
HCT-116 = system: HCT-116
HOP-92 = system: HOP-92
Hs-578T = system: Hs-578T
HT-29 = system: HT-29
OVCAR-4 = system: OVCAR-4
OVCAR-8 = system: OVCAR-8
RPMI-8226 = system: RPMI-8226
KM12 = system: KM12
CCRF-CEM = system: CCRF-CEM
OVCAR-5 = system: OVCAR-5
UACC-62 = system: UACC-62
UO-31 = system: UO-31
SK-MEL-28 = system: SK-MEL-28

Measured: GI50

O=c1[nH]c(Br)nc2[nH]nnc12
> 100 µM: HCT-15
inactive: MDA-N 38.9 µM | T47D 26.2 µM | 786-0 25.1 µM | TK-10 54.6 µM | HCC 2998 > 100 µM | SK-OV-3 39.3 µM | NCI-H23 > 100 µM | SF-539 16.7 µM | EKVX 70.1 µM | RXF 393 35 µM | SF-268 11 µM | SNB-19 > 100 µM | CAKI-1 7.08 µM | ACHN > 100 µM | MDA-MB-435 19.3 µM | DU-145 14.1 µM | OVCAR-3 > 100 µM | MOLT-4 2.73 µM | Malme-3M 6.95 µM | LOX IMVI 6.89 µM | PC-3 69.5 µM | SW-620 45.8 µM | HL-60 5.52 µM | SF-295 72.8 µM | SK-MEL-5 68.9 µM | HOP-62 17.7 µM | NCI-H522 > 100 µM | NCI-H226 > 100 µM | MDA-MB-231 34.7 µM | SNB-75 23.1 µM | A549 > 100 µM | U-251 68.7 µM | SN12C 32.4 µM | NCI-H460 > 100 µM | IGROV-1 > 100 µM | M14 19.8 µM | K562 9.4 µM | COLO 205 > 100 µM | BT-549 18.1 µM | MCF7 74.1 µM | NCI/ADR-RES 10.4 µM | SR 42.2 µM | A498 > 100 µM | SK-MEL-2 8.24 µM | UACC-257 55.6 µM | HCT-116 32 µM | HOP-92 > 100 µM | Hs-578T 38.3 µM | HT-29 > 100 µM | OVCAR-4 85.5 µM | OVCAR-8 8.79 µM | RPMI-8226 17.9 µM | KM12 > 100 µM | CCRF-CEM 7.55 µM | OVCAR-5 > 100 µM | UACC-62 15.9 µM | UO-31 11.7 µM

C#CCOC(=O)C(N)CC(N)=O (configuration not stated)
> 100 µM: HCT-15
inactive: MDA-N > 100 µM | T47D > 69 µM | 786-0 > 100 µM | TK-10 > 100 µM | HCC 2998 > 100 µM | SK-OV-3 > 100 µM | NCI-H23 > 100 µM | SF-539 > 100 µM | EKVX > 100 µM | RXF 393 > 100 µM | SF-268 > 100 µM | SNB-19 > 100 µM | CAKI-1 > 100 µM | ACHN > 100 µM | MDA-MB-435 > 100 µM | DU-145 > 100 µM | OVCAR-3 > 100 µM | MOLT-4 > 100 µM | Malme-3M > 100 µM | LOX IMVI > 100 µM | PC-3 > 100 µM | SW-620 > 100 µM | HL-60 > 100 µM | SF-295 > 100 µM | SK-MEL-5 > 100 µM | HOP-62 > 100 µM | NCI-H522 > 100 µM | NCI-H226 > 100 µM | MDA-MB-231 > 100 µM | SNB-75 > 100 µM | SK-MEL-28 > 100 µM | A549 > 100 µM | U-251 > 100 µM | SN12C > 100 µM | NCI-H460 > 100 µM | IGROV-1 > 100 µM | M14 > 100 µM | K562 21.2 µM | COLO 205 > 100 µM | BT-549 > 100 µM | MCF7 > 100 µM | NCI/ADR-RES > 100 µM | SR > 100 µM | A498 > 100 µM | SK-MEL-2 > 100 µM | UACC-257 > 100 µM | HCT-116 > 100 µM | HOP-92 > 100 µM | Hs-578T > 100 µM | HT-29 > 31.6 µM | OVCAR-4 > 100 µM | OVCAR-8 > 100 µM | RPMI-8226 > 100 µM | KM12 > 100 µM | CCRF-CEM > 100 µM | OVCAR-5 > 100 µM | UACC-62 > 100 µM | UO-31 > 100 µM
